The subject of data set [1] is T1, C. trachomatis L2/434/Bu expressing GFP (CTL2-GFP).
T1 construct: L2/434/Bu GFP intracellular growth in HeLa cells
Put plainly: microbe, parasite or virus in culture. Also noted: C. trachomatis total inclusion area by high-content imaging, normalised to DMSO. The settings on record: Chlamydia trachomatis, HeLa, 28.5 h; total inclusion area; read-out: % of control remaining. The method in brief:
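GFP/resorufin bulk fluorescence read → fix → Hoechst stain → high-content imaging. Inclusion total area + count = growth proxy; nuclei count = host viability proxy. MIC calc per earlier method.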

The test system of data set [2] is T2, CTL2-GFP (C. trachomatis L2/434/Bu, GFP-expressing).
T2 construct: L2/434/Bu, GFP-expressing
Put plainly: microbe, parasite or virus in culture. On the set-up: Intracellular C. trachomatis growth in HeLa cells, bulk GFP fluorescence relative to DMSO. The settings on record: Chlamydia trachomatis, HeLa, 28.5 h; bulk GFP, mean of 2; read-out: % of control remaining. On the procedure: MICs were calculated as described above.

The nature of data set [3]: in vitro. Also noted: Viability of infected HeLa host cells, resazurin conversion, bulk resorufin fluorescence relative to DMSO. As to conditions: human, hela cells; bulk resorufin, mean of 2.
A short description of data set [4]: in vitro. The settings on record: human, hela cells, % viability.

Our source for the activity and viability values is paper PMC12040169 (PLOS Biology, 2025).

As usually defined, the viability is a read-out of living cells in per cent, often relative to untreated cells.

As to `Cc1cc2nc(-c3ccccn3)[nH]c2cc1C` [CBK000122], in data set [1], the activity at 1 µM was 97.4%, the activity at 5 µM was 31% and the activity at 10 µM amounted to 9.06%. In addition, in data set [2], the activity at 1 µM came out at 129%, the activity at 5 µM worked out at 36.8% and the activity at 10 µM came out at 14.3%. Further, in data set [3], the viability at 28.5 h, 1 µM was found to be 94.7%; the viability at 28.5 h, 5 µM worked out at 90.3%; the viability at 28.5 h, 10 µM worked out at 89.1%. For the same compound, the viability at 28.5 h, 10 µM in data set [4] was 119%.
In the case of `NCc1ccc2cccc(O)c2n1` [CBK001376T], in data set [1], the activity at 1 µM was found to be 66.3%, the activity at 5 µM turned out to be 31.4% and the activity at 10 µM was found to be 6.97%. For the same compound, in data set [2], the activity at 1 µM is 80.5%, the activity at 5 µM turned out to be 19.7% and the activity at 10 µM was found to be 1.06%. Also, in data set [3], the viability at 28.5 h, 1 µM is 109%; the viability at 28.5 h, 5 µM worked out at 112%; the viability at 28.5 h, 10 µM turned out to be 110%. Also, in data set [4], the viability at 28.5 h, 10 µM worked out at 85.6%.
Regarding `Cc1ccc(C(=O)NC2CCCC2)cc1[N+](=O)[O-]` [CBK001993], in data set [1], the activity at 1 µM stood at 116%, the activity at 5 µM is 89.8% and the activity at 10 µM is 50.4%. Also, in data set [2], the activity at 1 µM is 123%, the activity at 5 µM was 123% and the activity at 10 µM was 110%. Also, in data set [3], the viability at 28.5 h, 1 µM is 112%; the viability at 28.5 h, 5 µM amounted to 110%; the viability at 28.5 h, 10 µM was determined as 104%. Further, in data set [4], the viability at 28.5 h, 10 µM stood at 102%.
For `COc1ccc([C@H]2CN(Cc3ccccc3)[C@@H]3CCN(C(=O)Cc4ccccc4)C[C@H]23)cc1` [CBK286285], in data set [1], the activity at 1 µM was 109%, the activity at 5 µM amounted to 95.8% and the activity at 10 µM came to 41.4%. Besides, in data set [2], the activity at 1 µM is 130%, the activity at 5 µM was found to be 111% and the activity at 10 µM was 49.2%. Moreover, in data set [3], the viability at 28.5 h, 1 µM came to 93.8%; the viability at 28.5 h, 5 µM was determined as 97.6%; the viability at 28.5 h, 10 µM worked out at 104%.
On to `CC(C(=O)N1CCC2(CC1)NC(=O)c1ccccc1N2)(c1ccccc1)c1ccccc1` [CBK286308], for which, in data set [1], the activity at 1 µM was found to be 82.6%, the activity at 5 µM worked out at 44.9% and the activity at 10 µM was determined as 28.3%. In data set [2], the activity at 1 µM came out at 96.5%, the activity at 5 µM amounted to 59.6% and the activity at 10 µM was found to be 46.3%. For the same compound, in data set [3], the viability at 28.5 h, 1 µM worked out at 97.7%; the viability at 28.5 h, 5 µM amounted to 93.1%; the viability at 28.5 h, 10 µM turned out to be 101%.
Turning to `CC(=O)N1CCc2sccc2C1c1ccccc1NCc1ccoc1` (stereo not drawn) [CBK286432], in data set [1], the activity at 1 µM is 61.5%, the activity at 5 µM is 24.5% and the activity at 10 µM stood at 22.5%. For the same compound, in data set [2], the activity at 1 µM was 87.1%, the activity at 5 µM stood at 34% and the activity at 10 µM was determined as 26.3%. Also, in data set [3], the viability at 28.5 h, 1 µM was found to be 85%; the viability at 28.5 h, 5 µM was found to be 86.8%; the viability at 28.5 h, 10 µM amounted to 85.9%.
Regarding `CCC(=O)N1CCCc2cc(C(O)CN3CCN(c4ccc(F)cc4)CC3)ccc21` (stereo not drawn) [CBK286480], in data set [1], the activity at 1 µM is 104%, the activity at 5 µM was determined as 58.2% and the activity at 10 µM worked out at 7.99%. Besides, in data set [2], the activity at 1 µM came to 116%, the activity at 5 µM came to 62% and the activity at 10 µM was determined as 10.5%. Moreover, in data set [3], the viability at 28.5 h, 1 µM worked out at 93%; the viability at 28.5 h, 5 µM was 84%; the viability at 28.5 h, 10 µM turned out to be 90.3%.
Turning to `CN1CCN(c2cc3c(cc2F)c(=O)c(C(=O)O)cn3-c2ccc(F)cc2)CC1` [CBK287138], in data set [1], the activity at 1 µM was determined as 11.1%, the activity at 5 µM worked out at 0.783% and the activity at 10 µM came out at 0.31%. In addition, in data set [2], the activity at 1 µM worked out at 14.6%, the activity at 5 µM amounted to 5.16% and the activity at 10 µM turned out to be 0.93%. In data set [3], the viability at 28.5 h, 1 µM was determined as 103%; the viability at 28.5 h, 5 µM worked out at 102%; the viability at 28.5 h, 10 µM turned out to be 104%.
Turning to `CCCCC(=O)/N=C(\N)Nc1nc2ccccc2o1` [CBK287937], in data set [1], the activity at 1 µM turned out to be 100%, the activity at 5 µM was 71.1% and the activity at 10 µM was 60.6%. Also, in data set [2], the activity at 1 µM was 119%, the activity at 5 µM turned out to be 117% and the activity at 10 µM came to 117%. Also, in data set [3], the viability at 28.5 h, 1 µM was 106%; the viability at 28.5 h, 5 µM was found to be 102%; the viability at 28.5 h, 10 µM came to 100%.
In the case of `Oc1ccc(Cn2cnc3ccccc32)c2cccnc12` [CBK291202], in data set [1], the activity at 1 µM turned out to be 116%, the activity at 5 µM came out at 52.7% and the activity at 10 µM amounted to 24.3%. Also, in data set [2], the activity at 1 µM was 103%, the activity at 5 µM amounted to 47.1% and the activity at 10 µM amounted to 19.3%. Besides, in data set [3], the viability at 28.5 h, 1 µM amounted to 105%; the viability at 28.5 h, 5 µM came out at 104%; the viability at 28.5 h, 10 µM was 96%.
Take `Cc1ccc(Nc2ncc(C(=O)NCCCN3CCN(c4cccc(Cl)c4)CC3)c3ccccc23)cc1Cl` [CBK291251]: in data set [1], the activity at 1 µM amounted to 93.1%, the activity at 5 µM is 97.7% and the activity at 10 µM came out at 75.8%. In data set [2], the activity at 1 µM was determined as 89.3%, the activity at 5 µM was 83.3% and the activity at 10 µM was 70.2%. In data set [3], the viability at 28.5 h, 1 µM was 106%; the viability at 28.5 h, 5 µM was 113%; the viability at 28.5 h, 10 µM came out at 99.2%.
As for `COc1ccc(Br)cc1C1CC(=O)Nc2c(-c3cccc(F)c3)csc21` (stereo not drawn) [CBK294442], in data set [1], the activity at 1 µM amounted to 118%, the activity at 5 µM turned out to be 29.4% and the activity at 10 µM was determined as 66.4%. Also, in data set [2], the activity at 1 µM turned out to be 132%, the activity at 5 µM was 65.3% and the activity at 10 µM came to 59.3%. In data set [3], the viability at 28.5 h, 1 µM amounted to 96.8%; the viability at 28.5 h, 5 µM was 96.5%; the viability at 28.5 h, 10 µM turned out to be 95.7%.
On to `C[C@H](NC(=O)Cc1ccc(-c2ccccc2)cc1)c1nc2ccccc2[nH]1` [CBK296998], for which, in data set [1], the activity at 1 µM was determined as 110%, the activity at 5 µM turned out to be 35.8% and the activity at 10 µM came to 30.7%. Also, in data set [2], the activity at 1 µM stood at 153%, the activity at 5 µM was 142% and the activity at 10 µM was found to be 185%. Moreover, in data set [3], the viability at 28.5 h, 1 µM was found to be 89.7%; the viability at 28.5 h, 5 µM came out at 97.4%; the viability at 28.5 h, 10 µM turned out to be 100%.
In the case of `O=C(O)c1cn(C2CC2)c2cc(N3CCN(C(=O)Cc4ccccc4Cl)CC3)c(F)cc2c1=O` [CBK297136], in data set [1], the activity at 1 µM came out at 145%, the activity at 5 µM was 74.4% and the activity at 10 µM amounted to 16.8%. Also, in data set [2], the activity at 1 µM turned out to be 153%, the activity at 5 µM worked out at 90.9% and the activity at 10 µM was found to be 28.4%. For the same compound, in data set [3], the viability at 28.5 h, 1 µM was 88.5%; the viability at 28.5 h, 5 µM worked out at 89.1%; the viability at 28.5 h, 10 µM turned out to be 93.4%.
Regarding `COc1cc(C=C2SC(NCC(=O)O)=NC2=O)ccc1OCc1ccc(Cl)cc1Cl` [CBK297555], in data set [1], the activity at 1 µM worked out at 110%, the activity at 5 µM was 86.9% and the activity at 10 µM is 44%. In data set [2], the activity at 1 µM is 135%, the activity at 5 µM turned out to be 155% and the activity at 10 µM is 200%. Also, in data set [3], the viability at 28.5 h, 1 µM was determined as 88.5%; the viability at 28.5 h, 5 µM was 92.1%; the viability at 28.5 h, 10 µM was determined as 88.9%.
Turning to `Cn1nnnc1-c1cccc(NC(=O)c2ccc(Oc3ccccc3)cc2)c1` [CBK297872], in data set [1], the activity at 1 µM stood at 118%, the activity at 5 µM came to 74.5% and the activity at 10 µM came out at 30.8%. Moreover, in data set [2], the activity at 1 µM is 124%, the activity at 5 µM came to 73.3% and the activity at 10 µM is 27.8%. Also, in data set [3], the viability at 28.5 h, 1 µM is 95.1%; the viability at 28.5 h, 5 µM turned out to be 88.4%; the viability at 28.5 h, 10 µM came to 89.1%.
On to `CC(Cc1nc(-c2nccn2C(C)C)cs1)n1cc(Cl)cn1` (stereo not drawn) [CBK304251], for which, in data set [1], the activity at 1 µM stood at 109%, the activity at 5 µM worked out at 55.7% and the activity at 10 µM was 28.6%. In data set [2], the activity at 1 µM was determined as 125%, the activity at 5 µM turned out to be 70.4% and the activity at 10 µM turned out to be 46.9%. Besides, in data set [3], the viability at 28.5 h, 1 µM is 90.7%; the viability at 28.5 h, 5 µM turned out to be 96.5%; the viability at 28.5 h, 10 µM was 92.9%.
Take `Cc1cccc(OCC(C)NC(=O)NCCc2cnn(C)c2)c1` (stereo not drawn) [CBK304887]: in data set [1], the activity at 1 µM came out at 120%, the activity at 5 µM is 47.6% and the activity at 10 µM was 19.4%. In data set [2], the activity at 1 µM came to 115%, the activity at 5 µM worked out at 43.5% and the activity at 10 µM was 16.5%. In data set [3], the viability at 28.5 h, 1 µM stood at 100%; the viability at 28.5 h, 5 µM is 98.5%; the viability at 28.5 h, 10 µM is 89.3%.
For the compound `COCCNc1nc2c(c(N3CCCCCC3)n1)CCNCC2` [CBK306724], in data set [1], the activity at 1 µM was determined as 79.4%, the activity at 5 µM is 0.64% and the activity at 10 µM came out at 0.424%. Besides, in data set [2], the activity at 1 µM turned out to be 76%, the activity at 5 µM came out at 7.81% and the activity at 10 µM was determined as 4.81%. In data set [3], the viability at 28.5 h, 1 µM turned out to be 98%; the viability at 28.5 h, 5 µM was found to be 97.9%; the viability at 28.5 h, 10 µM was 92.9%.
